Tests used:
HSET = HSET (Homo sapiens (Human), UniProt Q9BW19); conditions: literature (Watts et al., 2013; Zhang et al., 2016); read-out: HSET IC50 in biochemical assays; cited from earlier work
HSET full length protein = HSET full length protein (Homo sapiens (Human), UniProt Q9BW19); assay: HSET ADP-Glo Assay S - 3 μM ATP; format: biochemical; conditions: 5 nM HSET, 70 μg/mL microtubule, 80 min at rt, read-out: COMBINED HSET ADP GLO IC50
How it was run: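 Full-length human HSET (5 nM) with paclitaxel-stabilised bovine brain microtubules (70 μg/mL) in HEPES pH 6.8 buffer was preincubated 10 min with compound. ATP at 3 μM started the reaction, which ran 80 min at rt. ADP formed was measured by ADP-Glo luminescence.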

Sequence of HSET full length protein (Q9BW19 whole entry): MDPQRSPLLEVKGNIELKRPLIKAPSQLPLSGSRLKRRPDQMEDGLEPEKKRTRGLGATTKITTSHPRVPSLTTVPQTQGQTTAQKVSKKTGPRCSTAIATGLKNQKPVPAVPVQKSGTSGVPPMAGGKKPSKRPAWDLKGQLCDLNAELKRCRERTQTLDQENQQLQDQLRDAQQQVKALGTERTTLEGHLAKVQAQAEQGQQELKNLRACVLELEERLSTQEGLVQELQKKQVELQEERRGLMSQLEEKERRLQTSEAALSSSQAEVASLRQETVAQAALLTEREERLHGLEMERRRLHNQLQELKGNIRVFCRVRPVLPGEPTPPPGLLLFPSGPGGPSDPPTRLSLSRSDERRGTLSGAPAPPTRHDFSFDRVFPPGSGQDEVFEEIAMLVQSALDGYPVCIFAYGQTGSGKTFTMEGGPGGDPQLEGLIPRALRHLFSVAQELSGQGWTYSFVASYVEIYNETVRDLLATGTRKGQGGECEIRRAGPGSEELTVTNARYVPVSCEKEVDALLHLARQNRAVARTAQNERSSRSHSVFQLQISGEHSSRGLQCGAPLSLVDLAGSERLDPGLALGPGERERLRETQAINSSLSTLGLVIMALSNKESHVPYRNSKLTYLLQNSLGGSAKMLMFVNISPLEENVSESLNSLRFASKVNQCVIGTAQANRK
Sequence of HSET (Q9BW19 whole entry): as above

Row | Structure (SMILES) | IC50 (HSET full length protein) | IC50 (HSET)
1 | O=C(O)c1cc(I)ccc1NC(=O)[C@H](Cc1ccccc1)NCc1ccccc1 [CW069] | – | 75000 nM
2 | CCCOC(=O)n1cc(NC(=O)CCNc2nccc3ccc(-c4noc(C)n4)cc23)cn1 [Example 273, Propyl 4-(3-{[7-(5-methyl-1,2,4-oxadiazol-3-yl)isoquinolin-1-yl]amino}propanamido)-1 H-pyrazole-1-carboxylate] | 80 nM | –
3 | CCCOC(=O)n1cc(NC(=O)CCNC(=O)c2cccc(-c3noc(C)n3)c2)cn1 [Example 275, Propyl 4-(3-{[3-(5-methyl-1,2,4-oxadiazol-3-yl)phenyl]formamido}-propanamido)-1 H-pyrazole-1-carboxylate] | 11500 nM | –
4 | CCCOC(=O)c1sc(NC(=O)CCNc2nccc3ccc(C)cc23)nc1C [Example 280, Propyl 4-methyl-2-[3-[(7-methyl-1-isoquinolyl)amino]propanoyl-amino]thiazole-5-carboxylate] | 141 nM | –
5 | COc1ccc(-c2nc(N)s[n+]2-c2ccccc2)cc1 [SR31527] | – | 6600 nM

Second part, led by results:

Row | IC50 (HSET full length protein) | Structure (SMILES) | IC50 (HSET)
6 | 37 nM | CCCOC(=O)c1sc(NC(=O)CCNC(=O)c2cccc(-c3noc(C)n3)n2)nc1C [Example 276, Propyl 4-methyl-2-(3-{[6-(5-methyl-1,2,4-oxadiazol-3-yl)pyridin-2-yl]formamido}propanamido)-1,3-thiazole-5-carboxylate] | –
7 | 155 nM | Cc1nc(-c2cccc(C(=O)NCCC(=O)Nc3nc(C)c(C(=O)OC(C)(C)C)s3)n2)no1 [Example 277, tert-Butyl 4-methyl-2-(3-{[6-(5-methyl-1,2,4-oxadiazol-3-yl)pyridin-2-yl]formamido}propanamido)-1,3-thiazole-5-carboxylate] | –
8 | 71 nM | Cc1nc(-c2cccc(C(=O)NCCC(=O)Nc3nc(C)c(C(=O)OC(C)C)s3)n2)no1 [Example 278] | –
9 | 860 nM | Cc1nc(-c2cccc(C(=O)NCCC(=O)Nc3nc(C)c(C(=O)OC(C)(C)C)s3)c2F)no1 [Example 279] | –

Source: US20250084074A1, “SUBSTITUTED HETEROCYCLES AS HSET INHIBITORS” (MERCK PATENT GMBH, priority 2022, published 2025)
